Patent US20250302834A1, “N-ALKYL-2-SUBSTITUTED ATP ANALOGUES FOR USE AS ANTIBACTERIAL AGENT” (UNIVERSITÉ DE LIÈGE, priority 2022, published 2025)

Assays:
[1] = general statement, no test described; cited from earlier work
[2] = intravenous bolus (30 μg/kg) followed by 4-μg/kg/min infusion; cited from earlier work
[3] = test system: Staphylococcus aureus IE clinical isolate; experiment: Haemolytic activity of culture supernatant on human red blood cells, IE strain; assay type: cell-based; settings: IE strain grown with 0.5 μg/mL up to exponential phase; supernatant on red blood cells 30 minutes
Protocol: (§1) Staphylococcus aureus strains included previously characterized infective endocarditis (IE) clinical isolate (Liesenborghs L, Meyers S, Lox M, Criel M, Claes J, Peetermans M, Trenson S, Vande Velde G, Vanden Berghe P, Baatsen P, et al. Staphylococcus aureus endocarditis: distinct mechanisms of bacterial adhesion to damaged and inflamed heart valves. Eur Heart J 2019; 40:3248-3259) or JE2 (USA300 MRSA). Bacteria were grown in Tryptic soy broth (TSB, Sigma) under agitation (200 rpm) at 37° C. Prior to all experiments, a single colony from TSA plates was used to inoculate 4 mL of TSB in 15-mL polystyrene tubes and bacteria were grown overnight. Liquid cultures were then diluted 100-fold in 20 mL of fresh TSB and aliquoted in new tubes. For tetrasodium cangrelor treatment, different concentrations of the drug were added to the corresponding tubes. Tetrasodium cangrelor was dissolved in the culture medium, i.e. Tryptic soy broth which comprises proteins and nutrients for growing bacteria, more particularly: casein, soya peptone, sodium chloride, dipotassium phosphate, dextrose, water. […]
(§2) Freshly drawn citrate anticoagulated blood from healthy volunteers was centrifugated for 15 minutes at 1,000×g. […] Haemolytic activity was determined in supernatants by measuring the absorbance at 570 nm in a spectrophotometer. […]

JE2 S. aureus [4] = experiment: Bacterial adhesion to fibrinogen; assay type: cell-based, Staphylococcus aureus; settings: JE2 grown with 1 μg/ml (FIG. 6)
Protocol: (§3) Staphylococcus aureus JE2 (USA300 MRSA) in exponential growth phase, non-treated or treated with cangrelor at 1 μg/ml were stained with 30 μg/ml 5(6)-Carboxyfluorescein N-hydroxysuccinimide ester (Sigma-Aldrich) in phosphate-buffered saline (PBS) for 30 minutes at room temperature on a shaker. After incubation, bacteria were centrifuged for 5 minutes at 14,000×g and the supernatant was removed. Next, a washing step was performed by resuspending the bacteria in PBS and removing PBS after centrifugation (5 minutes at 14,000×g). The bacterial pellet was then resuspended in 100 μl of 6% bovine serum albumin (BSA). The stained bacteria were kept on ice until further use in the Von Willebrand factor (VWF) adhesion assay and fibrinogen (Fg) adhesion assay.
96-well plates (cellstar, greiner) were coated with human plasma fibrinogen (Fg, Merck) for 24 hours at room temperature, followed by a washing step with PBS. Next, a blocking step with 2% BSA for 1 hour was done followed by a wash step with PBS. Labelled bacteria in exponential phase were then diluted in TSB medium to obtain 10^9 CFU/ml of labelled bacteria. […] Bacterial adhesion was then quantified using a spectrophotometer (multi-mode microplate reader FilterMax F5, molecular devices) Ex.:485 nm and em.:535 nm, a surface scan of the wells was performed. […]

[5] = test system: methicillin-resistant JE2 (USA300) Staphylococcus aureus strain; experiment: Haemolytic activity of culture supernatant on human red blood cells, JE2 strain; assay type: cell-based; settings: JE2 (USA300) grown with 1 μg/mL up to stationary phase; supernatant on red blood cells 30 minutes
Protocol: as §1, §2

[6] = test system: Staphylococcus aureus IE clinical isolate; experiment: Staphyloxanthin production, IE strain; assay type: cell-based; settings: IE strain grown with 0.5 μg/mL up to exponential phase (FIG. 3)
Protocol: as §1
(§4) Bacteria pellets from overnight culture were resuspended in 400 μL methanol and incubated for 30 minutes at 37° C. under gentle agitation on a table shaker. […] Pigment intensity in supernatants was analyzed by measuring the absorbance at 470 nm. […]

JE2 S. aureus [7] = experiment: Bacterial adhesion to Von Willebrand factor under flow; assay type: cell-based, Staphylococcus aureus; settings: JE2 grown with 1 μg/ml; shear rate 1000 s^-1 for 10 minutes (FIG. 5)
Protocol: as §3, with “assay. […]” for “assay.”
After perfusion, the coverslip was removed from the system and washed with PBS, followed by a fixation step with 4% paraformaldehyde (PFA, miliporefore, Merck) for 10 minutes. […] Confocal microscopy was performed at a 40× magnification and fluorescence intensity was measured with QuPath software (Bankhead, P. et al. QuPath: Open source software for digital pathology image analysis. Sci. Rep. 7, 1-7 (2017)). A quantification of bacteria adhesion to VWF was determined by determining the percentage of positive pixels, corresponding to the fluorescent signal and bacterial adhesion.

JE2 S. aureus [8] = experiment: Bacterial metabolic activity (Calscreener); assay type: cell-based, Staphylococcus aureus; settings: 1 μg/ml, 20 μg/ml and 40 μg/ml, 15 hours (FIG. 8)
Protocol: (§5) A bacterial growth curve and metabolic activity profile was obtained of exponential phase JE2 bacteria following treatment with different concentrations of cangrelor 1 μg/ml, 20 μg/ml and 40 μg/ml. The bacterial growth curve was obtained via a kinetic reading using a spectrophotometer, reading every 10 minutes for 7 hours at an optical density of 595 nm with continuous shaking. The metabolic activity profile was obtained using a Calscreener™ (Symcel), which measures the metabolic response over time (15 hours) in presence of the different concentrations of cangrelor. […] While cangrelor cannot inhibit the bacterial growth of JE2, it can inhibit virulence factors production by this strain upon treatment using a clinically relevant dose of 1 μg/ml.

JE2 S. aureus [9] = experiment: Bacterial growth curve; assay type: cell-based, Staphylococcus aureus; settings: 1 μg/ml, 20 μg/ml and 40 μg/ml, 7 hours, OD 595 nm (FIG. 7)
Protocol: as §5

JE2 S. aureus [10] = experiment: Staphyloxanthin production, JE2 strain; assay type: cell-based, Staphylococcus aureus; settings: 1.0 μg/ml (FIG. 4)
Protocol: as §1, §4

CCCSc1nc(N[C@@H]2C[C@H]2c2ccc(F)c(F)c2)c2nnn([C@@H]3C[C@H](OCCO)[C@@H](O)[C@H]3O)c2n1 [Ticagrelor]
solubility in an aqueous environment or medium [1]: generally not soluble

CSCCNc1nc(SCCC(F)(F)F)nc2c1ncn2[C@@H]1O[C@H](COP(=O)(O)OP(=O)(O)C(Cl)(Cl)P(=O)(O)O)C(O)C1O (stereo partly shown) [tetrasodium cangrelor]
steady state concentration of the drug reached in patient [2]: 0.5 µg/mL
loss of supernatant haemolytic activity as compared to vehicle control (set to 100%) [3]: 90%

CSCCNc1nc(SCCC(F)(F)F)nc2c1ncn2[C@@H]1O[C@H](COP(=O)(O)OP(=O)(O)C(Cl)(Cl)P(=O)(O)O)[C@@H](O)[C@H]1O [cangrelor]
bacterial adhesion to fibrinogen as compared to vehicle control (JE2 S. aureus [4]): reduction
loss of supernatant haemolytic activity as compared to vehicle control (set to 100%) [5]: complete loss
loss of bacteria staphyloxanthin production as compared to vehicle control (set to 100%) [6]: 90%
bacterial adhesion to Von Willebrand factor under flow as compared to vehicle control (JE2 S. aureus [7]): reduction
bacterial metabolic activity as compared to vehicle control (JE2 S. aureus [8]): could not affect
bacterial growth (AUC of growth curve) as compared to vehicle control (JE2 S. aureus [9]): could not affect
loss of bacteria staphyloxanthin production as compared to vehicle control (set to 100%) (JE2 S. aureus [10]): 90%
